{"source": "patent US20160215031A1", "about": "“METHOD OF TREATING DISORDERS REQUIRING DESTRUCTION OR REMOVAL OF CELLS” (Nymox Pharnaceutical Corporation, priority 2015, published 2016)", "key": {"patients with BPH [1]": {"system": "patients with BPH", "assay": "Intraprostatic injection in patients with BPH: difference from baseline International Prostate Symptom Score (Mean IPSS Improvement)", "format": "in vivo, men", "experimental": "(§1) In a study of 978 men, patients with BPH were given an intraprostatic injection of either a) DRUG in phosphate buffered saline pH 7.2 (“PBS”) or b) PBS alone, under double-blind conditions by a urologist in an office setting under ultrasound guidance. Each patient was followed for one year or longer with regular physical examinations, laboratory tests, and evaluations of symptoms. Symptomatic evaluation was measured by the International Prostate Symptom Score (IPSS) which is a quantitative scale used to gauge prostatic symptomatic improvement or worsening. The IPSS quantifies the following: 1) incomplete bladder emptying after urination; 2) frequent urination; 3) stopping and starting during urination; 4) urgent need to urinate; 5) weakness of urinary stream; 6) need to push or strain during urination; 7) need to urinate after going to sleep at night (nocturia). The difference from baseline IPSS was compared in patients who were given DRUG vs patients who received PBS alone. Patients who had no previous history of conventional drug treatment (“treatment naïve”) were compared to patients who had previously failed on other conventional approved drugs such as alpha blockers or 5-alpha reductase inhibitors.\nPatients with BPH were given an intraprostatic injection of either a) DRUG in phosphate buffered saline pH 7.2 (“PBS”) or b) PBS alone, under double-blind conditions by a urologist in an office setting under ultrasound guidance. Each patient was followed for one year or longer with regular physical examinations, laboratory tests, and evaluations of symptoms. Symptomatic evaluation was measured by the International Prostate Symptom Score (IPSS) which is a quantitative scale used to gauge prostatic symptomatic improvement or worsening. The IPSS quantifies the following: 1) incomplete bladder emptying after urination; 2) frequent urination; 3) stopping and starting during urination; 4) urgent need to urinate; 5) weakness of urinary stream; 6) need to push or strain during urination; 7) need to urinate after going to sleep at night (nocturia). The difference from baseline IPSS was compared in patients who were given DRUG vs patients who received PBS alone. Patients who had both a) no previous history of conventional drug treatment (“treatment naïve”) and b) their BPH symptoms for <10 years, were compared to patients who had either a) previously failed on other conventional approved drugs such as alpha blockers or 5-alpha reductase inhibitors or b) had their BPH symptoms for >=10 years.\nIn a study of 978 men, patients with BPH were given an intraprostatic injection of either a) DRUG in phosphate buffered saline pH 7.2 (“PBS”) or b) PBS alone, under double-blind conditions by a urologist in an office setting under ultrasound guidance. Each patient was followed for one year or longer with regular physical examinations, laboratory tests, and evaluations of symptoms. Symptomatic evaluation was measured by the International Prostate Symptom Score (IPSS) which is a quantitative scale used to gauge prostatic symptomatic improvement or worsening. The IPSS quantifies the following: 1) incomplete bladder emptying after urination; 2) frequent urination; 3) stopping and starting during urination; 4) urgent need to urinate; 5) weakness of urinary stream; 6) need to push or strain during urination; 7) need to urinate after going to sleep at night (nocturia). The difference from baseline IPSS at an average of 22 months after treatment was compared in patients who were given DRUG vs patients who received PBS alone. Patients who were followed for only 12 months were imputed a change from 12 months onward equal to the mean of their group. Patients who had no previous history of conventional drug treatment (“treatment naïve”) were compared to patients who had previously failed on other conventional approved drugs such as alpha blockers or 5-alpha reductase inhibitors. […]"}, "patients with BPH [2]": {"system": "patients with BPH", "assay": "Intraprostatic injection in patients with BPH: proportion of patients worsening by IPSS", "format": "in vivo, men", "parameters": "decrease in the proportion of patients worsening over time, compared to the control: concentration or dose not given beside the values", "experimental": "as §1\nPatients with BPH were given an intraprostatic injection of either a) DRUG in phosphate buffered saline pH 7.2 (“PBS”) or b) PBS alone, under double-blind conditions by a urologist in an office setting under ultrasound guidance. Each patient was followed for one year with regular physical examinations, laboratory tests, and evaluations of symptoms. Symptomatic evaluation was measured by the International Prostate Symptom Score (IPSS) which is a quantitative scale used to gauge prostatic symptomatic improvement or worsening. The IPSS quantifies the following: 1) incomplete bladder emptying after urination; 2) frequent urination; 3) stopping and starting during urination; 4) urgent need to urinate; 5) weakness of urinary stream; 6) need to push or strain during urination; 7) need to urinate after going to sleep at night (nocturia). The difference from baseline IPSS was compared in patients who were given DRUG vs patients who received PBS alone. Previous treatment naive patients who had BPH history <10 years were compared to patients with previous treatment failure and to patients with BPH history >=10 years."}}, "note": "Marks after values point to notes of the source that are not given here."}
{"substance": "DRUG: NTP peptide given by intraprostatic injection in PBS pH 7.2; sequence not stated in the examples, probably SEQ ID NO. 66 (IDQQVLSRIKLEIKRCL)", "values": [{"measurement": "improvement of patients symptomatic for less than 10 years compared to patients symptomatic for more than 10 years", "setting": "patients with BPH [1]; 12 months (Example 5)", "value": "about 40.9%"}, {"measurement": "improvement in treatment naive patients compared to the improvement found in treatment failure patients", "setting": "patients with BPH [1]; 90 days (Example 1)", "value": "~1,700%"}, {"measurement": "increase in treatment naive patients compared to the improvement found in treatment failure patients", "setting": "patients with BPH [1]; 90 days (Example 1)", "value": 16.7, "unit": "fold"}, {"measurement": "Mean IPSS Improvement", "setting": "patients with BPH [1]; duration of BPH symptoms <10 years, 12 months after treatment", "value": "6.2*"}, {"measurement": "Mean IPSS Improvement", "setting": "patients with BPH [1]; duration of BPH symptoms ≧10 years, 12 months after treatment", "value": 4.4}, {"measurement": "improvement compared to previously treated patients receiving the same drug", "setting": "patients with BPH [1]; naive <10 years vs previously treated with symptoms for more than 10 years, 22 months (Example 4)", "value": "about 61.7%"}, {"measurement": "improvement compared to previously treated patients receiving the same drug", "setting": "patients with BPH [1]; naive <10 years vs previously treated with symptoms for more than 10 years, 90 days (Example 2)", "value": "about 39.7%"}, {"measurement": "improvement compared to previously treated patients receiving the same drug", "setting": "patients with BPH [1]; naive <10 years vs previously treated, worded 'symptoms for less than 10 years', 22 months (Example 4)", "value": 48.6, "unit": "%"}, {"measurement": "improvement compared to previously treated patients receiving the same drug", "setting": "patients with BPH [1]; naive <10 years vs previously treated, worded 'symptoms for less than 10 years', 90 days (Example 2)", "value": 35.4, "unit": "%"}, {"measurement": "Mean IPSS Improvement when compared to the control", "setting": "patients with BPH [1]; naive patients vs PBS, 22 months (Example 3)", "value": "about 52.9%"}, {"measurement": "Mean IPSS Improvement when compared to the control", "setting": "patients with BPH [1]; naive patients vs PBS, 90 days (Example 1)", "value": "about 26.5%"}, {"measurement": "Mean IPSS Improvement when compared to the control", "setting": "patients with BPH [1]; naive patients, BPH symptoms <10 years, vs PBS, after 22 months (Example 4)", "value": "about 61.7%"}, {"measurement": "Mean IPSS Improvement", "setting": "patients with BPH [1]; no previous treatment (treatment naive), 90 days after treatment", "value": "8.6*"}, {"measurement": "Mean IPSS Improvement", "setting": "patients with BPH [1]; previous BPH treatment (treatment failure), 90 days after treatment", "value": 6.5}, {"measurement": "Mean IPSS Improvement", "setting": "patients with BPH [1]; treatment failure and duration of BPH symptoms ≧10 years, 22 months after treatment", "value": 3.4}, {"measurement": "Mean IPSS Improvement", "setting": "patients with BPH [1]; treatment failure and duration of BPH symptoms ≧10 years, 90 days after treatment", "value": 6.3}, {"measurement": "Mean IPSS Improvement when compared to the control", "setting": "patients with BPH [1]; treatment failure patients vs PBS, 90 days (Example 1)", "value": "about 1.5%"}, {"measurement": "Mean IPSS Improvement", "setting": "patients with BPH [1]; treatment failure, 22 months after treatment", "value": 3.7}, {"measurement": "Mean IPSS Improvement", "setting": "patients with BPH [1]; treatment naive and duration of BPH symptoms <10 years, 22 months after treatment", "value": "5.5*"}, {"measurement": "Mean IPSS Improvement", "setting": "patients with BPH [1]; treatment naive and duration of BPH symptoms <10 years, 90 days after treatment", "value": "8.8*"}, {"measurement": "Mean IPSS Improvement", "setting": "patients with BPH [1]; treatment naive, 22 months after treatment", "value": "5.2*"}, {"measurement": "improvement in proportion of patients worsening, treatment naive compared to treatment failure patients", "setting": "patients with BPH [2]; 12 months (Example 6)", "value": 4.15, "unit": "fold"}, {"measurement": "reduction of the proportion of patients worsening, treatment naive compared to treatment failure patients", "setting": "patients with BPH [2]; 12 months (Example 6)", "value": "~420", "unit": "%"}, {"measurement": "Proportion of patients worsening", "setting": "patients with BPH [2]; IPSS >0 at 12 months, treatment naive", "value": "0.097*"}, {"measurement": "decrease in the proportion of patients worsening over time, treatment naive compared to treatment failure patients", "setting": "patients with BPH [2]; IPSS >0 at one year (Example 7)", "value": "about 55.6%"}, {"measurement": "Proportion of patients worsening", "setting": "patients with BPH [2]; IPSS >0 at one year, BPH history ≧10 years", "value": ".20"}, {"measurement": "Proportion of patients worsening", "setting": "patients with BPH [2]; IPSS >0 at one year, treatment naive and BPH symptoms <10 years", "value": ".08"}, {"measurement": "decrease in the proportion of patients worsening over time, treatment naive compared to treatment failure patients", "setting": "patients with BPH [2]; IPSS >1 at one year (Example 7)", "value": "~50", "unit": "%"}, {"measurement": "Proportion of patients worsening", "setting": "patients with BPH [2]; IPSS >1 at one year, BPH history ≧10 years", "value": ".13"}, {"measurement": "Proportion of patients worsening", "setting": "patients with BPH [2]; IPSS >1 at one year, treatment failure", "value": ".12"}, {"measurement": "Proportion of patients worsening", "setting": "patients with BPH [2]; IPSS >1 at one year, treatment naive and BPH symptoms <10 years", "value": ".06"}, {"measurement": "decrease in the proportion of patients worsening over time, treatment naive compared to treatment failure patients", "setting": "patients with BPH [2]; IPSS >2 at one year (Example 7)", "value": "~50", "unit": "%"}, {"measurement": "Proportion of patients worsening", "setting": "patients with BPH [2]; IPSS >2 at one year, BPH history ≧10 years", "value": ".10"}, {"measurement": "Proportion of patients worsening", "setting": "patients with BPH [2]; IPSS >2 at one year, treatment failure", "value": ".08"}, {"measurement": "Proportion of patients worsening", "setting": "patients with BPH [2]; IPSS >2 at one year, treatment naive and BPH symptoms <10 years", "value": ".04***"}, {"measurement": "decrease in the proportion of patients worsening over time, compared to the control", "setting": "patients with BPH [2]; history of BPH for more than 10 years, IPSS >0 at one year (Example 7)", "value": "about 4.7%"}, {"measurement": "decrease in the proportion of patients worsening over time, compared to the control", "setting": "patients with BPH [2]; history of BPH for more than 10 years, IPSS >1 at one year (Example 7)", "value": "~18.8", "unit": "%"}, {"measurement": "decrease in the proportion of patients worsening over time, compared to the control", "setting": "patients with BPH [2]; history of BPH for more than 10 years, IPSS >2 at one year (Example 7)", "value": "~16.7", "unit": "%"}, {"measurement": "decrease in the proportion of patients worsening over time, compared to the control", "setting": "patients with BPH [2]; naive patients <10 years, IPSS >0 at one year (Example 7)", "value": "about 61.9%"}, {"measurement": "decrease in the proportion of patients worsening over time, compared to the control", "setting": "patients with BPH [2]; naive patients <10 years, IPSS >1 at one year (Example 7)", "value": "~62.5", "unit": "%"}, {"measurement": "decrease in the proportion of patients worsening over time, compared to the control", "setting": "patients with BPH [2]; naive patients <10 years, IPSS >2 at one year (Example 7)", "value": "~66.7", "unit": "%"}, {"measurement": "decrease in the proportion of patients worsening over time, compared to the control", "setting": "patients with BPH [2]; naive patients, IPSS >0 at 12 months (Example 6)", "value": "about 51.5%"}, {"measurement": "decrease in the proportion of patients worsening over time, compared to the control", "setting": "patients with BPH [2]; treatment failure patients, IPSS >0 at 12 months (Example 6)", "value": "about 10%"}, {"measurement": "decrease in the proportion of patients worsening over time, compared to the control", "setting": "patients with BPH [2]; treatment failure patients, IPSS >0 at one year (Example 7)", "value": "about 14.3%"}, {"measurement": "decrease in the proportion of patients worsening over time, compared to the control", "setting": "patients with BPH [2]; treatment failure patients, IPSS >1 at one year (Example 7)", "value": "~25", "unit": "%"}, {"measurement": "decrease in the proportion of patients worsening over time, compared to the control", "setting": "patients with BPH [2]; treatment failure patients, IPSS >2 at one year (Example 7)", "value": "~33.3", "unit": "%"}]}
